Results taken from patent US9096593B2, “Compounds and methods for kinase modulation, and indications therefor” (Plexxikon Inc., priority 2009, dated 2015).
pIC50: −log10 of the molar value. Where two headings read alike, the source gives them in different places. Blank lines part the entries; values can stand above or below the compound they belong to.

Experiments:
[1] = Turbidity assay of relative solubility in aqueous buffers; assay type: physicochemical; settings: for turbidity threshold (L, M, H) 1.4: pH 1.4 as headed (method: SGF pH 1.5); for turbidity threshold (L, M, H) 4.5: pH 4.5 (SIF); for turbidity threshold (L, M, H) 6.8: pH 6.8 (SIF); for turbidity threshold (L, M, H) 7.4: pH 7.4 (HEPES)
Method in brief: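 DMSO stocks (25 mM) were serially diluted 1:1 and spiked into SGF pH 1.5 (0.5M NaCl), SIF pH 4.5 and 6.8 (0.05M NaH2PO4) or HEPES pH 7.4 (10 mM HEPES, 150 mM NaCl). Absorbance was read at 490, 535 and 650 nm. Value is the concentration crossing OD 0.01, averaged over the three wavelengths.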

CYP3A4(BQ) = CYP3A4(BQ) (Homo sapiens (Human), UniProt P08684); assay: CYP enzyme inhibition, fluorescent substrate; settings: for IC50: read-out: Cyp IC50 (μM) 3A4(BQ), BQ substrate
Method in brief: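 […]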

Flt-3 kinase = Flt-3 kinase (Homo sapiens (Human), UniProt P36888); assay: Flt-3 kinase biochemical activity assay (AlphaScreen, biotin-(E4Y)10 phosphorylation); settings: 100 μM ATP
Procedure: In one assay the biochemical activity IC50 values are determined with respect to inhibition of Flt-3 kinase activity, where inhibition of phosphorylation of a peptide substrate is measured as a function of compound concentration. Compounds to be tested, dissolved in DMSO (1 μL), are added to a white 384-well plate (Costar #3705). Working stocks of Flt-3 kinase (Invitrogen), biotin-(E4Y)10 substrate (Upstate Biotech, Cat#12-440), and ATP (Sigma, Cat#A-3377) are prepared in 25 mM Hepes pH 7.5, 5 mM MgCl2, 5 mM MnCl2, 1 mM DTT, and 0.01% Tween-20. All components are added to the 384-well plate for a final concentration of 1 ng/well Flt-3, 30 nM biotin-(E4Y)10 and 100 μM ATP in a volume of 20 μL. Each sample is at 5% DMSO. The plate is then incubated for 1 hour at room temperature. Just before use, working stocks of donor and acceptor beads from the AlphaScreen PY20 Detection Kit (PerkinElmer, Cat#676601M) are prepared in 25 mM Hepes pH 7.5, pH 7.4, 100 mM EDTA. 0.3% BSA. To stop the reaction, the plate is uncovered in the dark and 5 μL of Donor Beads solution (Streptavidin beads) is added to each well. The plate is incubated at room temperature for 20 minutes. Five microliters of Acceptor Beads solution (PY20 coated beads) are then added to each well. The final concentration of each bead is 10 μg/mL. The plates are incubated at room temperature for 60 minutes. Fluorescence signal is recorded on the Envision reader. Phosphorylated substrate results in binding of the PY20 antibody and association of the donor and acceptor beads such that signal correlates with kinase activity. The signal vs. compound concentration is used to determine the IC50.

Sequence of Flt-3 kinase (P36888 27-993): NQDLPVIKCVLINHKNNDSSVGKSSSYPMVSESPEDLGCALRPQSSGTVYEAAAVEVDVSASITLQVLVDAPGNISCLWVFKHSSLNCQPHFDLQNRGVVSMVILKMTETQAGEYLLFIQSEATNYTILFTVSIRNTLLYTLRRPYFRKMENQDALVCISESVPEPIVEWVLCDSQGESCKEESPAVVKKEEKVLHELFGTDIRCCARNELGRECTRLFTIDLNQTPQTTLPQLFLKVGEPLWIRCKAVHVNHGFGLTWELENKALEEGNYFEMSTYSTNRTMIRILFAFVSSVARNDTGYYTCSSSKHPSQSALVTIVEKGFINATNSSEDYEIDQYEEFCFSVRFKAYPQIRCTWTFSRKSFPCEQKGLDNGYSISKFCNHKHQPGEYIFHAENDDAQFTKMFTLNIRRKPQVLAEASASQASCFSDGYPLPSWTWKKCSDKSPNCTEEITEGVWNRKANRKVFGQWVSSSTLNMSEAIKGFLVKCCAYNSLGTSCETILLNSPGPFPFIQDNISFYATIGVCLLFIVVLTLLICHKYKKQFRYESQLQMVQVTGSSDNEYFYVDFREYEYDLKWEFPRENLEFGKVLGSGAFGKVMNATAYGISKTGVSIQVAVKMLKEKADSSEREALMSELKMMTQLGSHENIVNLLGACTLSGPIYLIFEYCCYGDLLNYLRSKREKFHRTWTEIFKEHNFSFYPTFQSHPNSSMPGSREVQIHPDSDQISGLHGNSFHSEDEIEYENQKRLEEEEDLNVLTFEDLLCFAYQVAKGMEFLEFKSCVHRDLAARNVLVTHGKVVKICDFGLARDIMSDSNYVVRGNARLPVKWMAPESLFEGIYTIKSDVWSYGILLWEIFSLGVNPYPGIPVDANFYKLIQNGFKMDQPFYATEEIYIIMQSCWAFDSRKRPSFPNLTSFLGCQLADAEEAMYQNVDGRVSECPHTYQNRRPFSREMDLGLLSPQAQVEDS
Sequence of CYP3A4(BQ) (P08684 whole entry): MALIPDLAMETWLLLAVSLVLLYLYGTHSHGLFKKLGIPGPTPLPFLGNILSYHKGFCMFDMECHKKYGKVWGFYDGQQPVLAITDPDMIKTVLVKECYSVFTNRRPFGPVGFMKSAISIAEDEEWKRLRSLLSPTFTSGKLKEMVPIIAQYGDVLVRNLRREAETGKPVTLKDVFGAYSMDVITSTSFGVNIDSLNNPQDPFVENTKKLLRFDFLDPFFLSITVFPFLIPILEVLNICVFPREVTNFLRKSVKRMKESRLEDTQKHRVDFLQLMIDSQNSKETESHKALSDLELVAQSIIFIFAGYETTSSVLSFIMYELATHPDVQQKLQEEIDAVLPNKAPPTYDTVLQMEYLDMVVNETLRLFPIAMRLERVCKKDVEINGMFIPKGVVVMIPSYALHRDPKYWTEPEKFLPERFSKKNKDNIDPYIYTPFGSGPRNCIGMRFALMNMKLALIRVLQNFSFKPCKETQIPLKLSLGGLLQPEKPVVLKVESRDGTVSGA

Structure (SMILES): COc1ccc(CNc2ncc(Cc3c[nH]c4ncc(Cl)cc34)cn2)cn1 [Compound P-2038, [5-(5-Chloro-1H-pyrrolo[2,3-b]pyridin-3-ylmethyl)-pyrimidin-2-yl]-(6-methoxy-pyridin-3-ylmethyl)-amine]
- turbidity threshold (L, M, H) 1.4 [1]: H (high solubility if the threshold concentration is >250 μM)
- turbidity threshold (L, M, H) 4.5 [1]: L (low solubility if the threshold concentration is <31.3 μM)
- turbidity threshold (L, M, H) 6.8 [1]: L (low solubility if the threshold concentration is <31.3 μM)
- turbidity threshold (L, M, H) 7.4 [1]: L (low solubility if the threshold concentration is <31.3 μM)
- IC50 (CYP3A4(BQ)): > 10 µM
- IC50 (Flt-3 kinase): < 0.1 µM

Structure (SMILES): Fc1nc(NCc2ccc(Cl)cn2)ccc1Cc1c[nH]c2ncccc12 [Compound P-2044, (5-Chloro-pyridin-2-ylmethyl)-[6-fluoro-5-(1H-pyrrolo[2,3-b]pyridin-3-ylmethyl)-pyridin-2-yl]-amine]
- IC50 (Flt-3 kinase): > 0.1 µM

Structure (SMILES): Cc1cnc2[nH]cc(Cc3ccc(NCc4ccc(C(F)(F)F)nc4)nc3)c2c1 [Compound P-2019, [5-(5-Methyl-1H-pyrrolo[2,3-b]pyridin-3-ylmethyl)-pyridin-2-yl]-(6-trifluoromethyl-pyridin-3-ylmethyl)-amine]
- turbidity threshold (L, M, H) 1.4 [1]: H (high solubility if the threshold concentration is >250 μM)
- turbidity threshold (L, M, H) 4.5 [1]: M (moderate solubility if the threshold concentration is 31.3 μM to 250 μM)
- turbidity threshold (L, M, H) 6.8 [1]: M (moderate solubility if the threshold concentration is 31.3 μM to 250 μM)
- turbidity threshold (L, M, H) 7.4 [1]: L (low solubility if the threshold concentration is <31.3 μM)
- IC50 (CYP3A4(BQ)): > 10 µM
- IC50 (Flt-3 kinase): < 0.1 µM

Structure (SMILES): COc1cnc2[nH]cc(Cc3ccc(NCc4ccc(OC)nc4)nc3F)c2c1 [Compound P-2030, [6-Fluoro-5-(5-methoxy-1H-pyrrolo[2,3-b]pyridin-3-ylmethyl)-pyridin-2-yl]-(6-methoxy-pyridin-3-ylmethyl)-amine]
- turbidity threshold (L, M, H) 1.4 [1]: H (high solubility if the threshold concentration is >250 μM)
- turbidity threshold (L, M, H) 4.5 [1]: M (moderate solubility if the threshold concentration is 31.3 μM to 250 μM)
- turbidity threshold (L, M, H) 6.8 [1]: M (moderate solubility if the threshold concentration is 31.3 μM to 250 μM)
- turbidity threshold (L, M, H) 7.4 [1]: L (low solubility if the threshold concentration is <31.3 μM)
- IC50 (CYP3A4(BQ)): > 10 µM
- IC50 (Flt-3 kinase): < 0.1 µM

Structure (SMILES): COc1ccc(CNc2ncc(Cc3c[nH]c4ncc(C)cc34)cn2)cn1 [Compound P-2057, (6-Methoxy-pyridin-3-ylmethyl)-[5-(5-methyl-1H-pyrrolo[2,3-b]pyridin-3-ylmethyl)-pyrimidin-2-yl]-amine]
- turbidity threshold (L, M, H) 1.4 [1]: H (high solubility if the threshold concentration is >250 μM)
- turbidity threshold (L, M, H) 4.5 [1]: L (low solubility if the threshold concentration is <31.3 μM)
- turbidity threshold (L, M, H) 6.8 [1]: L (low solubility if the threshold concentration is <31.3 μM)
- turbidity threshold (L, M, H) 7.4 [1]: M (moderate solubility if the threshold concentration is 31.3 μM to 250 μM)
- IC50 (CYP3A4(BQ)): > 10 µM
- IC50 (Flt-3 kinase): < 0.1 µM

Structure (SMILES): COc1ncc(CNc2ccc(Cc3c[nH]c4ncc(Cl)cc34)c(F)n2)cc1F [Compound P-2165, [5-(5-Chloro-1H-pyrrolo[2,3-b]pyridin-3-ylmethyl)-6-fluoro-pyridin-2-yl]-(5-fluoro-6-methoxy-pyridin-3-ylmethyl)-amine]
- turbidity threshold (L, M, H) 1.4 [1]: L (low solubility if the threshold concentration is <31.3 μM)
- turbidity threshold (L, M, H) 4.5 [1]: L (low solubility if the threshold concentration is <31.3 μM)
- turbidity threshold (L, M, H) 6.8 [1]: L (low solubility if the threshold concentration is <31.3 μM)
- turbidity threshold (L, M, H) 7.4 [1]: L (low solubility if the threshold concentration is <31.3 μM)
- IC50 (CYP3A4(BQ)): > 10 µM
- IC50 (Flt-3 kinase): < 0.1 µM

Structure (SMILES): COc1ccnc2[nH]cc(Cc3ccc(NCc4ccc(Cl)cc4)nc3F)c12 [Compound P-2037, (4-Chloro-benzyl)-[6-fluoro-5-(4-methoxy-1H-pyrrolo[2,3-b]pyridin-3-ylmethyl)-pyridin-2-yl]-amine]
- turbidity threshold (L, M, H) 1.4 [1]: M (moderate solubility if the threshold concentration is 31.3 μM to 250 μM)
- turbidity threshold (L, M, H) 4.5 [1]: L (low solubility if the threshold concentration is <31.3 μM)
- turbidity threshold (L, M, H) 6.8 [1]: L (low solubility if the threshold concentration is <31.3 μM)
- turbidity threshold (L, M, H) 7.4 [1]: L (low solubility if the threshold concentration is <31.3 μM)
- IC50 (CYP3A4(BQ)): > 10 µM
- IC50 (Flt-3 kinase): < 0.1 µM

Structure (SMILES): Fc1ccc(CNc2ccc(Cc3c[nH]c4ncc(Cl)cc34)cn2)cn1 [Compound P-2004, [5-(5-chloro-1H-pyrrolo[2,3-b]pyridin-3-ylmethyl)-pyridin-2-yl]-(6-fluoro-pyridin-3-ylmethyl)-amine]
- turbidity threshold (L, M, H) 1.4 [1]: H (high solubility if the threshold concentration is >250 μM)
- turbidity threshold (L, M, H) 4.5 [1]: M (moderate solubility if the threshold concentration is 31.3 μM to 250 μM)
- turbidity threshold (L, M, H) 6.8 [1]: M (moderate solubility if the threshold concentration is 31.3 μM to 250 μM)
- turbidity threshold (L, M, H) 7.4 [1]: M (moderate solubility if the threshold concentration is 31.3 μM to 250 μM)
- pIC50 (CYP3A4(BQ)): 5.00 to 5.30
- IC50 (Flt-3 kinase): < 0.1 µM

Structure (SMILES): Clc1cnc2[nH]cc(Cc3ccc(NCc4ccc(Cl)nc4)nc3)c2c1 [Compound P-2003]
- turbidity threshold (L, M, H) 1.4 [1]: H (high solubility if the threshold concentration is >250 μM)
- turbidity threshold (L, M, H) 4.5 [1]: M (moderate solubility if the threshold concentration is 31.3 μM to 250 μM)
- turbidity threshold (L, M, H) 6.8 [1]: L (low solubility if the threshold concentration is <31.3 μM)
- turbidity threshold (L, M, H) 7.4 [1]: L (low solubility if the threshold concentration is <31.3 μM)
- IC50 (CYP3A4(BQ)): > 10 µM
- IC50 (Flt-3 kinase): < 0.1 µM

Structure (SMILES): COc1cnc2[nH]cc(Cc3ccc(NCc4ccc(Cl)cc4)nc3F)c2c1 [Compound P-2032, (4-Chloro-benzyl)-[6-fluoro-5-(5-methoxy-1H-pyrrolo[2,3-b]pyridin-3-ylmethyl)-pyridin-2-yl]-amine]
- turbidity threshold (L, M, H) 1.4 [1]: M (moderate solubility if the threshold concentration is 31.3 μM to 250 μM)
- turbidity threshold (L, M, H) 4.5 [1]: L (low solubility if the threshold concentration is <31.3 μM)
- turbidity threshold (L, M, H) 6.8 [1]: L (low solubility if the threshold concentration is <31.3 μM)
- turbidity threshold (L, M, H) 7.4 [1]: L (low solubility if the threshold concentration is <31.3 μM)
- IC50 (CYP3A4(BQ)): > 10 µM
- IC50 (Flt-3 kinase): < 0.1 µM

- IC50 (Flt-3 kinase): < 0.1 µM
Structure (SMILES): COc1cnc2[nH]cc(Cc3ccc(NCc4ccccc4Cl)nc3F)c2c1 [Compound P-2034, (2-chloro-benzyl)-[6-fluoro-5-(5-methoxy-1H-pyrrolo[2,3-b]pyridin-3-ylmethyl)-pyridin-2-yl]-amine]

Structure (SMILES): COc1ccc(CNc2ccc(Cc3c[nH]c4ncc(C)cc34)c(F)n2)cn1 [Compound P-2029, [6-Fluoro-5-(5-methyl-1H-pyrrolo[2,3-b]pyridin-3-ylmethyl)-pyridin-2-yl]-(6-methoxy-pyridin-3-ylmethyl)-amine]
- turbidity threshold (L, M, H) 1.4 [1]: H (high solubility if the threshold concentration is >250 μM)
- turbidity threshold (L, M, H) 4.5 [1]: M (moderate solubility if the threshold concentration is 31.3 μM to 250 μM)
- turbidity threshold (L, M, H) 6.8 [1]: M (moderate solubility if the threshold concentration is 31.3 μM to 250 μM)
- turbidity threshold (L, M, H) 7.4 [1]: M (moderate solubility if the threshold concentration is 31.3 μM to 250 μM)
- pIC50 (CYP3A4(BQ)): 5.00 to 5.30
- IC50 (Flt-3 kinase): < 0.1 µM

Structure (SMILES): Cc1cnc2[nH]cc(Cc3ccc(NCc4ccc(C(F)(F)F)nc4)nc3F)c2c1 [Compound P-2031, [6-Fluoro-5-(5-methyl-1H-pyrrolo[2,3-b]pyridin-3-ylmethyl)-pyridin-2-yl]-(6-trifluoromethyl-pyridin-3-ylmethyl)-amine]
- turbidity threshold (L, M, H) 1.4 [1]: M (moderate solubility if the threshold concentration is 31.3 μM to 250 μM)
- turbidity threshold (L, M, H) 4.5 [1]: L (low solubility if the threshold concentration is <31.3 μM)
- turbidity threshold (L, M, H) 6.8 [1]: L (low solubility if the threshold concentration is <31.3 μM)
- turbidity threshold (L, M, H) 7.4 [1]: L (low solubility if the threshold concentration is <31.3 μM)
- pIC50 (CYP3A4(BQ)): 5.00 to 5.30
- IC50 (Flt-3 kinase): < 0.1 µM
